For assay [1], the target named is T1, Endothelin-converting enzyme 1 (Homo sapiens, UniProt P42892).
T1 sequence (P42892 whole entry): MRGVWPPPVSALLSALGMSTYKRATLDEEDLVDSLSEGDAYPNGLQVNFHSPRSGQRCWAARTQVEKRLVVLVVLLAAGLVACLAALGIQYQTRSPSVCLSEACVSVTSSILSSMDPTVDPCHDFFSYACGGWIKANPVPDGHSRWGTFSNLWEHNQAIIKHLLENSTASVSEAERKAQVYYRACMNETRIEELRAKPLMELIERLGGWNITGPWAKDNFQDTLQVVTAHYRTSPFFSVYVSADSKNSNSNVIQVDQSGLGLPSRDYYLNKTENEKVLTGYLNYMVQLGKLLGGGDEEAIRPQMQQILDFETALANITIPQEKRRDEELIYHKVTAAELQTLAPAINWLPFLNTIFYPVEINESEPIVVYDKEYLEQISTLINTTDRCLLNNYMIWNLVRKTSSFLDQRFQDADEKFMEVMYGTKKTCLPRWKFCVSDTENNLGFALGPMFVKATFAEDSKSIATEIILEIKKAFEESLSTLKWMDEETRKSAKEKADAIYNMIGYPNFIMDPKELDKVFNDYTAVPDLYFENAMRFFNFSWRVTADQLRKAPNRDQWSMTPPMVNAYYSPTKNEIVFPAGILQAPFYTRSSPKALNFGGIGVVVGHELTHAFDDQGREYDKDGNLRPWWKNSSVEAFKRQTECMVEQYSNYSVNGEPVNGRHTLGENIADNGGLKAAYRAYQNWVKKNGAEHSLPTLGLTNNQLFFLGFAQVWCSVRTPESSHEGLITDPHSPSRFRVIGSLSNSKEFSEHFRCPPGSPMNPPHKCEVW
Description: Compound was tested for its inhibitory activity against Endothelin-converting enzyme at the concentration of 1 uM; Inactive.

The next assay deals with T2, Neprilysin (Rattus norvegicus, UniProt P07861).
T2 sequence (P07861 whole entry): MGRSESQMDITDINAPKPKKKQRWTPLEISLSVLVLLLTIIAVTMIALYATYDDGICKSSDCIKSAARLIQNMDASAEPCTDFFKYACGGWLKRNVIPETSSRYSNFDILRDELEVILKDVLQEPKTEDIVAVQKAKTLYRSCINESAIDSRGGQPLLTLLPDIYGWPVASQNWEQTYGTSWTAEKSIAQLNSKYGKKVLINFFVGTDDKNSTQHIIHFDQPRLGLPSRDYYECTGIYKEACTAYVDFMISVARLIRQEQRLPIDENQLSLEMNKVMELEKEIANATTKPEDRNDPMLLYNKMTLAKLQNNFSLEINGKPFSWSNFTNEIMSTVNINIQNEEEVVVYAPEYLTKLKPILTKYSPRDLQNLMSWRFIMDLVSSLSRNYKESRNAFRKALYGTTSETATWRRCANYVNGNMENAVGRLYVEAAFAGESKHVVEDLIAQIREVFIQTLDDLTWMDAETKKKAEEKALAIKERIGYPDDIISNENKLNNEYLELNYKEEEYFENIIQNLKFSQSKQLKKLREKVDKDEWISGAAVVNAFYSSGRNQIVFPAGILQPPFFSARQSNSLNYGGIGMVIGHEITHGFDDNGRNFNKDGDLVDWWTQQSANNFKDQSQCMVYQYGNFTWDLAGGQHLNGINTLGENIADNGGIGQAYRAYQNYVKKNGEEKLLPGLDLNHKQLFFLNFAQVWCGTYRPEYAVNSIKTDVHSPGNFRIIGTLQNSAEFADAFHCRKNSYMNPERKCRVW
The assay can be described thus: Compound was tested for its inhibitory activity against neutral endopeptidase 24.11 enzyme at the concentration of 10 uM; Inactive.

Assay [2] deals with T3, Angiotensin-converting enzyme (Oryctolagus cuniculus, UniProt P12822).
T3 sequence (P12822 whole entry): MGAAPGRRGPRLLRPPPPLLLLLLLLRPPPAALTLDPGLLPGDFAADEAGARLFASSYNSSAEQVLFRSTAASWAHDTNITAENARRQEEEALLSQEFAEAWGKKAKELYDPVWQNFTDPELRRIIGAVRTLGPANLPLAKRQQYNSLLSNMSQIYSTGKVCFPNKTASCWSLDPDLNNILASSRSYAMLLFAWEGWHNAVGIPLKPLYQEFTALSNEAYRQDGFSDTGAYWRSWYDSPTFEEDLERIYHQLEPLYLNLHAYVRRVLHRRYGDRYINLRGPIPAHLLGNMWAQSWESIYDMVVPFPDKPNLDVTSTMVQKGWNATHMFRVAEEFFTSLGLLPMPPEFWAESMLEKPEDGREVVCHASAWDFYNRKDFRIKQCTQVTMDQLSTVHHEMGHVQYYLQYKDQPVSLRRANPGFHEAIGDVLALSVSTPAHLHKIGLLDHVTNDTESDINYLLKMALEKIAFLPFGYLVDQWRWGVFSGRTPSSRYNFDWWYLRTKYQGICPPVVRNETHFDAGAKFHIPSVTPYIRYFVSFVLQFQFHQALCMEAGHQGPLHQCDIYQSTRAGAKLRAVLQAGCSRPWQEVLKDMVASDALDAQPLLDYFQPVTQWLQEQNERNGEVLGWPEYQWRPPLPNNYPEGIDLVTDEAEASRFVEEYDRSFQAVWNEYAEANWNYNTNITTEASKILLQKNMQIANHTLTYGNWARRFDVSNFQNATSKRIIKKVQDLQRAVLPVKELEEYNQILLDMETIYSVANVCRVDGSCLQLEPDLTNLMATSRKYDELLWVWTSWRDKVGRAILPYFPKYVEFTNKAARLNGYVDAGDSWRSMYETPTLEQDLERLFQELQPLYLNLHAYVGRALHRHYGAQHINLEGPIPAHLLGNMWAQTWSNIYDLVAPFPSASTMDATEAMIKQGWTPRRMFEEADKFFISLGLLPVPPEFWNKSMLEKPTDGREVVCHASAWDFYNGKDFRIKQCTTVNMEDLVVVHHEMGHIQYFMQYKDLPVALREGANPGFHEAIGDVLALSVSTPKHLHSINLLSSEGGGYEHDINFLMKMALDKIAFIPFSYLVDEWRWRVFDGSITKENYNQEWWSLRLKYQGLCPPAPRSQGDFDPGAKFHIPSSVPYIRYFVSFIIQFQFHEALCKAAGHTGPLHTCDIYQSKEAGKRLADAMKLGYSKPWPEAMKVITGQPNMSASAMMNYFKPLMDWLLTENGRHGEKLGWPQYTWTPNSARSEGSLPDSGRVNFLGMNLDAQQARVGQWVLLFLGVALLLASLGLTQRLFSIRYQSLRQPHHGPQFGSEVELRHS
The assay can be described thus: Compound was tested for its inhibitory activity against Angiotensin I converting enzyme.

In the case of `C[C@H](CS)C(=O)N1[C@@H]2C[C@@H]2C[C@H]1C(=O)O`, the results for the IC50 result (in assay [1]; against Neprilysin; in assay [2]) were “Not Active”, “Not Active” and 7.6 nM, respectively.

As for `C[C@H](CS)C(=O)N1[C@@H]2C[C@@H]2CC[C@H]1C(=O)O`, the IC50 (commonly the midpoint of a concentration-inhibition curve) in assay [1] is “Not Active”; at Neprilysin it was “Not Active”; in assay [2] it was 5.3 nM.

`C[C@H](CS)C(=O)N1[C@H](C(=O)O)C[C@@H]2C[C@@H]21`: the IC50 result is “Not Active” in assay [1], “Not Active” against Neprilysin and 6.6 nM in assay [2].
